We go through one compound from US6869964B2, “Heterocyclicsulfonamide hepatitis C virus inhibitors” (Bristol-Myers Squibb Company, priority 2002, dated 2005).

Assay [1] deals with T1, HCV NS3/4A protease complex (H77C strain) (Hepatitis C virus genotype 1a, UniProt P27958, C1454S).
T1 construct: HCV NS3/4A protease complex (amino acids 1027 to 1711); inferred from pET21b vector and Ni-NTA purification; made in house; host or cells: Escherichia coli BL21 (DE3), pET21b
Put plainly: Recombinant HCV NS3/4A protease complex FRET peptide assay, H77C strain. In kind it is biochemical, HCV genotype 1a. The text has this: (§1) Recombinant HCV NS3/4A Protease Complex FRET Peptide Assay
(§2) The purpose of this in vitro assay was to measure the inhibition of HCV NS3 protease complexes, derived from the BMS, H77C or J4l6S strains, as described below, by compounds of the present invention. This assay provides an indication of how effective compounds of the present invention would be in inhibiting HCV proteolytic activity.
(§3) Serum from an HCV-infected patient was obtained from Dr. T. Wright, San Francisco Hospital. An engineered full-length cDNA template of the HCV genome (BMS strain) was constructed from DNA fragments obtained by reverse transcription-PCR (RT-PCR) of serum RNA and using primers selected on the basis of homology between other genotype la strains. From the determination of the entire genome sequence, a genotype la was assigned to the HCV isolate according to the classification of Simmonds et al. (See P Simmonds, K A Rose, S Graham, S W Chan, F McOmish, B C Dow, E A Follett, P L Yap and H Marsden, J. Clin. Microbiol., 31(6), 1493-1503 (1993)). […]

For assay [2], the target named is T2, HCV NS3/4A protease complex (BMS strain) (Hepatitis C virus genotype 1a, UniProt P27958, C1454S).
T2 construct: HCV NS3/4A protease complex (amino acids 1027 to 1711); inferred from pET21b vector and Ni-NTA purification; made in house; host or cells: Escherichia coli BL21 (DE3), pET21b
T2 sequence (P27958 1027-1657 C1454S): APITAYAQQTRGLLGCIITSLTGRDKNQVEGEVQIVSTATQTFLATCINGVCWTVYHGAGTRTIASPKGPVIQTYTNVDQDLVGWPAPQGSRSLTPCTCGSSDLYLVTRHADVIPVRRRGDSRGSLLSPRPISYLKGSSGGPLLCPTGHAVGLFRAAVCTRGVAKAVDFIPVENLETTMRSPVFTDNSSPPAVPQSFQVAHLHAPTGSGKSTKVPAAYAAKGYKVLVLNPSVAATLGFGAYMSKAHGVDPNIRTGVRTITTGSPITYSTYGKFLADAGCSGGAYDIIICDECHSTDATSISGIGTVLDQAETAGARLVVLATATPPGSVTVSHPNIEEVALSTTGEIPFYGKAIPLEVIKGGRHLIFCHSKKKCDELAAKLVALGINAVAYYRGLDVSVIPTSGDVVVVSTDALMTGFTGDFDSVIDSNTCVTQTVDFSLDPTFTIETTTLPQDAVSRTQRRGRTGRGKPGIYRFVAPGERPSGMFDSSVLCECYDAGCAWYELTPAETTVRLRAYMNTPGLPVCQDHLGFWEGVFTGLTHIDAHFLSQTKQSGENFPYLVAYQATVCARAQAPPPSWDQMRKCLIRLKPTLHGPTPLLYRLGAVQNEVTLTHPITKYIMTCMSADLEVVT
T2 sequence (P27958 1658-1711 partner, looked up, stated change not applied): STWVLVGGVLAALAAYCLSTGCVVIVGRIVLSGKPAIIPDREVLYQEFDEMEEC
Nature of the assay: Recombinant HCV NS3/4A protease complex FRET peptide assay, BMS strain. In kind it is biochemical, HCV genotype 1a.
From the text: as §1, §2
Serum from an HCV-infected patient was obtained from Dr. T. Wright, San Francisco Hospital. An engineered full-length cDNA template of the HCV genome (BMS strain) was constructed from DNA fragments obtained by reverse transcription-PCR (RT-PCR) of serum RNA and using primers selected on the basis of homology between other genotype la strains. From the determination of the entire genome sequence, a genotype la was assigned to the HCV isolate according to the classification of Simmonds et al. (See P Simmonds, K A Rose, S Graham, S W Chan, F McOmish, B C Dow, E A Follett, P L Yap and H Marsden, J. Clin. Microbiol., 31(6), 1493-1503 (1993)). […] The infectious clones, H77C (1a genotype) and J4 L6S (1b genotype) were obtained from R. Purcell (NIH) and the sequences are published in Genbank (AAB67036, see Yanagi, M., Purcell, R. H., Emerson, S. U. and Bukh, J. Proc. Natl. Acad. Sci. U.S.A. 94(16),8738-8743 (1997); AF054247, see Yanagi, M., St Claire, M., Shapiro, M., Emerson, S. U., Purcell, R. H. and Bukh, J, Virology 244 (1), 161-172. (1998)).
The BMS, H77C and J4 L6S strains were used for production of recombinant NS3/4A protease complexes. DNA encoding the recombinant HCV NS3/4A protease complex (amino acids 1027 to 1711) for these strains were manipulated as described by P. Gallinari et al. (see Gallinari P, Paolini C, Brennan D, Nardi C, Steinkuhler C, De Francesco R. Biochemistry. 38(17):5620-32, (1999)). Briefly, a three-lysine solubilizing tail was added at the 3′-end of the NS4A coding region. The cysteine in the P1 position of the NS4A-NS4B cleavage site (amino acid 1711) was changed to a glycine to avoid the proteolytic cleavage of the lysine tag. Furthermore, a cysteine to serine mutation was introduced by PCR at amino acid position 1454 to prevent the autolytic cleavage in the NS3 helicase domain. The variant DNA fragment was cloned in the pET21b bacterial expression vector (Novagen) and the NS3/4A complex was expressed in Escherichia coli strain BL21 (DE3) (Invitrogen) following the protocol described by P. Gallinari et al. (see Gallinari P, Brennan D, Nardi C, Brunetti M, Tomei L, Steinkuhler C, De Francesco R., J Virol. 72(8):6758-69 (1998)) with modifications. Briefly, NS3/4A expression was induced with 0.5 mM Isopropyl β-D-1-thiogalactopyranoside (IPTG) for 22 hr at 20° C. A typical fermentation (10 L) yielded approximately 80 g of wet cell paste. The cells were resuspended in lysis buffer (10 mL/g) consisting of 25 mM N-(2-Hydroxyethyl)Piperazine-N′-(2-Ethane Sulfonic acid) (HEPES), pH7.5, 20% glycerol, 500 mM Sodium Chloride (NaCl), 0.5% Triton-X100, 1 ug/ml lysozyme, 5 mM Magnesium Chloride (MgCl2), 1 ug/ml DnaseI, 5 mM β-Mercaptoethanol (βME), Protease inhibitor—Ethylenediamine Tetraacetic acid (EDTA) free (Roche), homogenized and incubated for 20 mins at 4° C. The homogenate was sonicated and clarified by ultra-centrifugation at 235000 g for lhr at 4° C. Imidazole was added to the supernatant to a final concentration of 15 mM and the pH adjusted to 8.0. The crude protein extract was loaded on a Nickel—Nitrilotriacetic acid (Ni—NTA) column pre-equilibrated with buffer B (25 mM HEPES, pH8.0, 20% glycerol, 500 mM NaCl, 0.5% Triton-X100, 15 mM imidazole, 5 mM βME). The sample was loaded at a flow rate of 1 mL/min. The column was washed with 15 column volumes of buffer C (same as buffer B except with 0.2% Triton-X100). The protein was eluted with 5 column volumes of buffer D (same as buffer C except with 200 mM Imidazole). […]

Assay [3] addresses T3, porcine pancreatic elastase (PPE) (Sus scrofa, UniProt P00772).
T3 construct: porcine pancreatic elastase (PPE); from tissue; host or cells: porcine pancreas (from the enzyme's name only)
Nature of the assay: Specificity assay, porcine pancreatic elastase. In kind it is biochemical. As to conditions: 2 hr enzyme-inhibitor pre-incubation. As for the experimental part:
(§4) The specificities of compounds of the present invention were determined against a variety of serine proteases: human sputum elastase (HS), porcine pancreatic elastase (PPE) and human pancreatic chymotrypsin and one cysteine protease: human liver cathepsin B. In all cases a 96-well plate format protocol using colorimetric p-nitroaniline (pNA) substrate specific for each enzyme was used as described previously (CT 2633 application) with some modifications to the serine protease assays.
(§5) Each assay included a 2 hr enzyme-inhibitor pre-incubation at RT followed by addition of substrate and hydrolysis to ˜30% conversion as measured on a Spectramax Pro microplate reader. Compound concentrations varied from 100 to 0.4 μM depending on their potency.
The final conditions and protocol for the serine protease assays were: • 50 mM Tris(hydroxymethyl)aminomethane hydrochloride (Tris-HCl) pH8, • 0.5M Sodium Sulfate (Na2SO4), 50 mM NaCl, 0.1 mM EDTA, 3% DMSO, • 0.01% Tween-20 with: 133 μM succ-AAA-pNA and 20 nM HS or 8 nM PPE; 100 μM succ-AAPF-pNA and 250 pM Chymotrypsin.
(§6) The percentage of inhibition was calculated using the formula: [1−((UVinh−UVblank)/(UVctl−UVblank))]×100
(§7) A non-linear curve fit was applied to the inhibition-concentration data, and the 50% effective concentration (IC50) was calculated by the use of Excel Xl-fit software.

Another assay concerns the target T4, human liver cathepsin B (Homo sapiens, UniProt P07858).
T4 construct: one cysteine protease: human liver cathepsin B; from tissue; host or cells: human liver (from the enzyme's name only)
Put plainly: Specificity assay, human liver cathepsin B. In kind it is biochemical. The following applies: 2 hr enzyme-inhibitor pre-incubation; solubility issues at 100 μM. As for the experimental part:
as §4, §5, §6, §7

The target of assay [4] is T5, HCV NS3/4A protease complex (J4L6S strain) (Hepatitis C virus genotype 1b, UniProt O92972, C1454S/C1711G).
T5 construct: HCV NS3/4A protease complex (amino acids 1027 to 1711); inferred from pET21b vector and Ni-NTA purification; made in house; host or cells: Escherichia coli BL21 (DE3), pET21b
T5 sequence (O92972 1658-1711, stated change not applied): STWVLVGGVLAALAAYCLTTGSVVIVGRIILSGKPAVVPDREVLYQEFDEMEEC
T5 sequence (O92972 1027-1711, looked up, stated change not applied): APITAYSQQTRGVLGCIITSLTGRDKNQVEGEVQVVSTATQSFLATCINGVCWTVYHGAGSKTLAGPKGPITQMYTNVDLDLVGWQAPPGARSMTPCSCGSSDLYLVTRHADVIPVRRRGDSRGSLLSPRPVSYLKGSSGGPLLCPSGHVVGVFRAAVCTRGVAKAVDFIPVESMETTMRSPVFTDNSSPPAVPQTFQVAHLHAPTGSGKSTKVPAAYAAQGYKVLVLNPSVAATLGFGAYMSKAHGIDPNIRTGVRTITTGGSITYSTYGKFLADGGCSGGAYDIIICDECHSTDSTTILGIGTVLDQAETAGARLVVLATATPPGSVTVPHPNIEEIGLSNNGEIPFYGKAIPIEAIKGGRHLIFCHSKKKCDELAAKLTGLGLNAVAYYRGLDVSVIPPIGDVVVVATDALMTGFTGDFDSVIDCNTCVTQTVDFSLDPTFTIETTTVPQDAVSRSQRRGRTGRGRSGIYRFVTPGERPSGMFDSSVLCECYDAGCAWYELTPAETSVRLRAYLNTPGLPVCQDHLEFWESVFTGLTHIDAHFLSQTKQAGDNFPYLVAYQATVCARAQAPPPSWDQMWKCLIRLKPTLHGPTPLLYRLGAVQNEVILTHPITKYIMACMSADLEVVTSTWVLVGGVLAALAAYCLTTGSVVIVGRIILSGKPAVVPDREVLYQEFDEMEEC
Nature of the assay: Recombinant HCV NS3/4A protease complex FRET peptide assay, J4L6S strain. In kind it is biochemical, HCV genotype 1b.
From the text: as §1, §2, §3

Like-named read-outs stand apart in the source and are kept apart here.

T1 sequence (P27958 1027-1657 C1454S): as the sequence (P27958 1027-1657 C1454S) above
T1 sequence (P27958 1658-1711 partner, looked up, stated change not applied): as the sequence (P27958 1658-1711 partner, looked up, stated change not applied) above
T3 sequence (P00772 27-266): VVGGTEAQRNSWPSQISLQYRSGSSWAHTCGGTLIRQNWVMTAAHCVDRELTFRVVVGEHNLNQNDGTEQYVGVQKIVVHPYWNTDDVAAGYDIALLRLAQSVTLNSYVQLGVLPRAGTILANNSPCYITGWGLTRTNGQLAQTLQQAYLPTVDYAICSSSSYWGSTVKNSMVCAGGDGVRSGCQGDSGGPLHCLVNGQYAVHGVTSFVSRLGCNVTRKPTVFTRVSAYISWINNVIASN

Turning to `C=CC1C[C@]1(NC(=O)[C@@H]1C[C@@H](Oc2cc(-c3ccccc3)nc3cc(OC)ccc23)CN1C(=O)[C@@H](NC(=O)OC(C)(C)C)C(C)(C)C)C(=O)NS(=O)(=O)c1cccs1` (stereo in doubt) [Compound 1, (1-{4-(7-Methoxy-2-phenylquinolin-4-yloxy)-2-[1-(thiophene-2-sulfonylaminocarbonyl)-2-vinyl-cyclopropylcarbamoyl]-pyrrolidine-1-carbonyl}-2,2-dimethylpropyl)carbamic acid tert-butyl ester], the IC50 in assay [1] is 2.2 nM; in assay [2] (BMS strain, read-out: IC50 against the NS3/4A BMS strain in the enzyme assay), 8 nM; in assay [2] (NS3/4A BMS Strain, activity range, read-out: IC50 a, b, c (Activity Table)) it was below 100 nM; in assay [3], above 50000 nM; against human liver cathepsin B, above 50000 nM; in assay [4] it was 1.6 nM.
